Laboratory results taken from US3954780A, “Propionic acid derivatives” (Innothera, priority 1970, dated 1976).
Values after ≈ are worked out from the molar mass of the structure shown. Counter-ions that a name gives are not always drawn.

Assays:
[1] = tested on: isolated rat duodenum; test: Spasmolytic activity of papaverinic type, barium chloride contracture; details: Tyrode 38°; for EC50: read-out: Spasmolytic activity Papaverinic type DE 50 (converted)
Description: a. To show activity of the papaverinic type, the contracturant used is barium chloride acting on the isolated rat duodenum.
The average activity of the substances studied has been effected by determining graphically their DE 30 and DE 50 these being expressed in μg for 20 ml of bath.

[2] = tested on: isolated ileum of the guinea-pig; test: Spasmolytic activity of atropinic type, acetylcholine chloride contracture; details: Tyrode 33°; for EC50: Cavia porcellus, read-out: Spasmolytic activity Atropinic type DE 50 (converted)
Excerpt: b. To show activity of atropinic type the contracturant used is acetylcholine chloride acting on the isolated ileum of the guinea-pig. […]

Row | SMILES | EC50 [1] | EC50 [2] | Spasmolytic activity Papaverinic type DE 30 [1] | Spasmolytic activity Atropinic type DE 30 [2]
1 | C=CCC(Cc1csc2ccccc12)C(=O)OCCN(CC)CC (stereo not shown) [Compound 1] | 0.125 µg/mL (≈ 0.362 µM) |  | 3.7 μg for 20 ml of bath | 
2 | O=C(OCCN1CCCCC1)C(Cc1csc2ccccc12)c1ccccc1 (stereo not shown) [Compound 15] | 3.5 µg/mL (≈ 8.89 µM) | 2.25 µg/mL (≈ 5.72 µM) | 45.0 μg for 20 ml of bath | 26 μg/20 ml of bath
3 | CCN(CC)CCCOC(=O)C(Cc1csc2ccccc12)c1ccccc1 (stereo not shown) [Compound 19] | 1.25 µg/mL (≈ 3.16 µM) |  | 11.5 μg for 20 ml of bath | 
4 | CN(C)CCCOC(=O)C(Cc1csc2ccccc12)c1ccccc1 (stereo not shown) [Compound 18] | 1 µg/mL (≈ 2.72 µM) | 1.75 µg/mL (≈ 4.76 µM) | 8.0 μg for 20 ml of bath | 22 μg/20 ml of bath
5 | CCN(CC)CCOC(=O)C(Cc1csc2ccccc12)c1ccccc1 (stereo not drawn) [Compound 13, N,N-diethylamino ethyl ester of α-phenyl-β-[(benzo(b)thienyl-3]propionic acid and its oxalate] | 2.25 µg/mL | 2.1 µg/mL | 13.0 μg for 20 ml of bath | 30 μg/20 ml of bath
6 | O=C(OCCCN1CCCC1)C(Cc1csc2ccccc12)c1ccccc1 (stereo not shown) [Compound 20] | 0.95 µg/mL (≈ 2.41 µM) | 2.75 µg/mL (≈ 6.99 µM) | 8.0 μg for 20 ml of bath | 25 μg/20 ml of bath
7 | C=CCC(Cc1csc2ccccc12)C(=O)OCCCN1CCCCC1 (stereo not shown) [Compound 9] | 1 µg/mL (≈ 2.69 µM) |  | 13.0 μg for 20 ml of bath | 
8 | C=CCC(Cc1csc2ccccc12)C(=O)OCCN1CCCC1 (stereo not shown) [Compound 2] | 1.15 µg/mL (≈ 3.35 µM) |  | 12.0 μg for 20 ml of bath | 
9 | C=CCC(Cc1csc2ccccc12)C(=O)OCCCN1CCCC1 (stereo not shown) [Compound 8] | 4 µg/mL (≈ 11.2 µM) | 4.5 µg/mL (≈ 12.6 µM) | 42.0 μg for 20 ml of bath | 55 μg/20 ml of bath
10 | C=CCC(Cc1csc2ccccc12)C(=O)OCCN1CCCCC1 (stereo not shown) [Compound 3] | 2 µg/mL (≈ 5.59 µM) |  | 18.0 μg for 20 ml of bath | 
11 | CN1C2CCC1CC(OC(=O)C(CO)c1ccccc1)C2 (stereo not shown) [atropine sulphate, reference compound] |  | ≤ 0.005 µg/mL |  | 
12 | C=CCC(Cc1csc2ccccc12)C(=O)OCCCN1CCCCCC1 (stereo not shown) [Compound 10] | 0.65 µg/mL (≈ 1.69 µM) |  | 7.2 μg for 20 ml of bath | 
13 | O=C(OCCCN1CCCCC1)C(Cc1csc2ccccc12)c1ccccc1 (stereo not shown) [Compound 21] | 0.95 µg/mL (≈ 2.33 µM) | 4 µg/mL (≈ 9.81 µM) | 8.0 μg for 20 ml of bath | 40 μg/20 ml of bath
14 | O=C(OCCCN1CCCCCC1)C(Cc1csc2ccccc12)c1ccccc1 (stereo not shown) [Compound 22] | 0.8 µg/mL (≈ 1.9 µM) |  | 7.0 μg for 20 ml of bath | 
15 | O=C(OCCN1CCOCC1)C(Cc1csc2ccccc12)c1ccccc1 (stereo not shown) [Compound 16] | 5.5 µg/mL (≈ 13.9 µM) | 22.5 µg/mL (≈ 56.9 µM) | 38.0 μg for 20 ml of bath | 225 μg/20 ml of bath
16 | CN(C)CCOC(=O)C(Cc1csc2ccccc12)c1ccccc1 (stereo not shown) [Compound 12] | 2.5 µg/mL (≈ 7.07 µM) | 5 µg/mL (≈ 14.1 µM) | 24.0 μg for 20 ml of bath | 50 μg/20 ml of bath

Continued, in another order:

Row | EC50 [1] | EC50 [2] | SMILES | Spasmolytic activity Papaverinic type DE 30 [1] | Spasmolytic activity Atropinic type DE 30 [2]
17 | 0.525 µg/mL (≈ 1.35 µM) | 2.3 µg/mL (≈ 5.93 µM) | CN(C)CCCOC(=O)C(Cc1cccs1)Cc1csc2ccccc12 (stereo not shown) [Compound 41] | 4.3 μg for 20 ml of bath | 24 μg/20 ml of bath
18 | 0.65 µg/mL (≈ 1.59 µM) |  | CCN(CC)CCCOC(=O)C(Cc1ccccc1)Cc1csc2ccccc12 (stereo not shown) [Compound 30] | 6.0 μg for 20 ml of bath | 
19 | 0.475 µg/mL (≈ 1.13 µM) |  | O=C(OCCCN1CCCCC1)C(Cc1ccccc1)Cc1csc2ccccc12 (stereo not shown) [Compound 32] | 4.5 μg for 20 ml of bath | 
20 | 0.5 µg/mL (≈ 1.21 µM) | 0.9 µg/mL (≈ 2.18 µM) | CC(CN1CCCC1)OC(=O)C(Cc1cccs1)Cc1csc2ccccc12 (stereo not shown) [Compound 46] | 2.5 μg for 20 ml of bath | 6.5 μg/20 ml of bath
21 | 0.4 µg/mL (≈ 0.935 µM) | 3.5 µg/mL (≈ 8.18 µM) | O=C(OCCCN1CCCCC1)C(Cc1cccs1)Cc1csc2ccccc12 (stereo not shown) [Compound 44] | 5.5 μg for 20 ml of bath | 30 μg/20 ml of bath
22 | 0.8 µg/mL (≈ 1.93 µM) | 10 µg/mL (≈ 24.2 µM) | O=C(OCCN1CCCCC1)C(Cc1cccs1)Cc1csc2ccccc12 (stereo not shown) [Compound 38] | 6.0 μg for 20 ml of bath | 95 μg/20 ml of bath
23 | 0.35 µg/mL (≈ 0.859 µM) | 7 µg/mL (≈ 17.2 µM) | CC(CN1CCCCC1)OC(=O)C(Cc1csc2ccccc12)c1ccccc1 (stereo not shown) [Compound 23] | 3.1 μg for 20 ml of bath | 50 μg/20 ml of bath
24 | 4 µg/mL (≈ 9.63 µM) |  | O=C(OCCN1CCOCC1)C(Cc1cccs1)Cc1csc2ccccc12 (stereo not shown) [Compound 39] | 43.0 μg for 20 ml of bath | 
25 | 1.25 µg/mL (≈ 3.4 µM) | 10 µg/mL (≈ 27.2 µM) | CN(C)CCOC(=O)C(Cc1ccccc1)Cc1csc2ccccc12 (stereo not shown) [Compound 24] | 10.0 μg for 20 ml of bath | 90 μg/20 ml of bath
26 | 0.7 µg/mL (≈ 1.86 µM) |  | CN(C)CCCOC(=O)C(Cc1csc2ccccc12)CC1CCCO1 (stereo not shown) [Compound 52] | 8.0 μg for 20 ml of bath | 
27 | 1.25 µg/mL (≈ 3.21 µM) | 0.9 µg/mL (≈ 2.31 µM) | CCN(CC)CCOC(=O)C(Cc1csc2ccccc12)CC1CCCO1 (stereo not shown) [Compound 48] | 6.0 μg for 20 ml of bath | 10 μg/20 ml of bath
28 | 1 µg/mL (≈ 2.49 µM) | 1.4 µg/mL (≈ 3.49 µM) | CCN(CC)CCOC(=O)C(Cc1cccs1)Cc1csc2ccccc12 (stereo not shown) [Compound 36] | 8.5 μg for 20 ml of bath | 14 μg/20 ml of bath
29 | 0.425 µg/mL (≈ 0.976 µM) |  | O=C(OCCCN1CCCCCC1)C(Cc1ccccc1)Cc1csc2ccccc12 (stereo not shown) [Compound 33] | 4.0 μg for 20 ml of bath | 
30 | 1.35 µg/mL (≈ 3.06 µM) |  | O=C(OCCCN1CCCCCC1)C(Cc1cccs1)Cc1csc2ccccc12 (stereo not shown) [Compound 45] | 14.0 μg for 20 ml of bath | 
31 | 0.75 µg/mL (≈ 2.07 µM) |  | CN(C)CCOC(=O)C(Cc1csc2ccccc12)CC1CCCO1 (stereo not shown) [Compound 47] | 9.0 μg for 20 ml of bath | 
32 | 0.8 µg/mL (≈ 1.86 µM) |  | O=C(OCCCN1CCCCCC1)C(Cc1csc2ccccc12)CC1CCCO1 (stereo not shown) [Compound 56] | 10.0 μg for 20 ml of bath | 
33 | 0.8 µg/mL (≈ 1.96 µM) |  | CC(CN1CCCC1)OC(=O)C(Cc1ccccc1)Cc1csc2ccccc12 (stereo not shown) [Compound 34] | 8.0 μg for 20 ml of bath | 
34 | 0.6 µg/mL (≈ 1.47 µM) |  | O=C(OCCN1CCCCC1)C(Cc1ccccc1)Cc1csc2ccccc12 (stereo not shown) [Compound 27] | 6.0 μg for 20 ml of bath | 
35 | 0.425 µg/mL (≈ 1.11 µM) | 5 µg/mL (≈ 13.1 µM) | CN(C)CCCOC(=O)C(Cc1ccccc1)Cc1csc2ccccc12 (stereo not shown) [Compound 29] | 4.0 μg for 20 ml of bath | 45 μg/20 ml of bath
